Test results reported in patent US6620828B2, “Thiazole compounds and pharmaceutical compositions for inhibiting protein kinases and methods for their use” (Agouron Pharmaceuticals, Inc., priority 1999, dated 2003).

These molecules were tested on human umbilical vein endothelial cells (HUVEC) (assay: HUVEC proliferation assay). Conditions: Homo sapiens, HUVEC, Inhibition of HUVEC Proliferation; 50 nM; crude combinatorial urea library; read-out: % inhibition @ 50 nM.
Type: cell-based
In short: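 Readout was MTT dye reduction (A595) after 72 h of stimulation with VEGF at 6 ng/ml final. Compound, in 0.1% DMSO final, was added 1 h before VEGF to HUVEC starved 24 h in 1% FBS. % inhibition was scaled between VEGF-alone and unstimulated wells; IC50 was fitted from triplicate dose curves.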
`COc1cccc(C(=O)Nc2cc(-c3csc(-c4sc(NC(=O)NCC5CCC=CO5)nc4N)n3)c(F)cc2F)c1` (centres unmarked) was tested, and the inhibition at 0.05 µM was 42%. `COc1cccc(C(=O)Nc2cc(-c3csc(-c4sc(NC(=O)NCCc5ccccn5)nc4N)n3)c(F)cc2F)c1` showed an inhibition at 0.05 µM of 105%. For `COc1cccc(C(=O)Nc2cc(-c3csc(-c4sc(NC(=O)NCc5cccnc5)nc4N)n3)c(F)cc2F)c1`, the inhibition at 0.05 µM was 102%. `COc1cccc(C(=O)Nc2cc(-c3csc(-c4sc(NC(=O)NCc5ccncc5)nc4N)n3)c(F)cc2F)c1` was tested, and the inhibition at 0.05 µM was 95%. With `COc1cccc(C(=O)Nc2cc(-c3csc(-c4sc(NC(=O)NCC(O)CO)nc4N)n3)c(F)cc2F)c1` (centres unmarked) the inhibition at 0.05 µM was 74%. `COc1cccc(C(=O)Nc2cc(-c3csc(-c4sc(NC(=O)NC(C)CO)nc4N)n3)c(F)cc2F)c1` (centres unmarked) gave an inhibition at 0.05 µM of 98%. `COc1cccc(C(=O)Nc2cc(-c3csc(-c4sc(NC(=O)NCCCN(C)C)nc4N)n3)c(F)cc2F)c1` gave an inhibition at 0.05 µM of 72%. Molecule `COc1cccc(C(=O)Nc2cc(-c3csc(-c4sc(NC(=O)NCCN(C)C)nc4N)n3)c(F)cc2F)c1` has an inhibition at 0.05 µM of 63%. Work on `COc1cccc(C(=O)Nc2cc(-c3csc(-c4sc(NC(=O)NCC(C)(C)N)nc4N)n3)c(F)cc2F)c1` yielded an inhibition at 0.05 µM of 73%. For `CCCCN(CCCC)CCCNC(=O)Nc1nc(N)c(-c2nc(-c3cc(NC(=O)c4cccc(OC)c4)c(F)cc3F)cs2)s1`, the inhibition at 0.05 µM was 81%.

Same assay, conditions: Homo sapiens, HUVEC, Inhibition of HUVEC Proliferation; 50 nM; crude combinatorial urea library; read-out: Inhibition @ 50 nM
`COc1cccc(C(=O)Nc2cc(-c3noc(-c4sc(NC(=O)NCCNc5ccccc5)nc4N)n3)c(F)cc2F)c1` showed an inhibition at 0.05 µM of 89%. With `CCN(CC)CCNC(=O)Nc1nc(N)c(-c2nc(-c3cc(NC(=O)c4cccc(OC)c4)c(F)cc3F)no2)s1` the inhibition at 0.05 µM was 82%. With `COc1cccc(C(=O)Nc2cc(-c3noc(-c4sc(NC(=O)NC5CC(C)(C)NC(C)(C)C5)nc4N)n3)c(F)cc2F)c1` the inhibition at 0.05 µM was 99%. For `COc1cccc(C(=O)Nc2cc(-c3noc(-c4sc(NC(=O)NCCc5ccc(N)cc5)nc4N)n3)c(F)cc2F)c1`, the inhibition at 0.05 µM was 88%. For `COc1cccc(C(=O)Nc2cc(-c3noc(-c4sc(NC(=O)NCCCN5CCOCC5)nc4N)n3)c(F)cc2F)c1`, the inhibition at 0.05 µM was 80%. `COc1cccc(C(=O)Nc2cc(-c3noc(-c4sc(NC(=O)NCCC(C)C)nc4N)n3)c(F)cc2F)c1` gave an inhibition at 0.05 µM of 96%. For `COc1cccc(C(=O)Nc2cc(-c3noc(-c4sc(NC(=O)NCCC5CCCN5C)nc4N)n3)c(F)cc2F)c1` (centres unmarked), the inhibition at 0.05 µM was 104%. Work on `COc1cccc(C(=O)Nc2cc(-c3noc(-c4sc(NC(=O)NCCN5CCCCC5)nc4N)n3)c(F)cc2F)c1` yielded an inhibition at 0.05 µM of 78%. For `COc1cccc(C(=O)Nc2cc(-c3noc(-c4sc(NC(=O)NCc5ccccc5)nc4N)n3)c(F)cc2F)c1`, the inhibition at 0.05 µM was 61%. Molecule `COc1cccc(C(=O)Nc2cc(-c3noc(-c4sc(NC(=O)NCCCN5CCCCC5C)nc4N)n3)c(F)cc2F)c1` (centres unmarked) has an inhibition at 0.05 µM of 96%. With `COc1cccc(C(=O)Nc2cc(-c3noc(-c4sc(NC(=O)NC5CCN(Cc6ccccc6)CC5)nc4N)n3)c(F)cc2F)c1` the inhibition at 0.05 µM was 82%. `COc1cccc(C(=O)Nc2cc(-c3noc(-c4sc(NC(=O)NCC(C)(C)CN(C)C)nc4N)n3)c(F)cc2F)c1` gave an inhibition at 0.05 µM of 77%. Work on `COc1cccc(C(=O)Nc2cc(-c3noc(-c4sc(NC(=O)NCCC(=O)O)nc4N)n3)c(F)cc2F)c1` yielded an inhibition at 0.05 µM of 56%. `COCCNC(=O)Nc1nc(N)c(-c2nc(-c3cc(NC(=O)c4cccc(OC)c4)c(F)cc3F)no2)s1` was tested, and the inhibition at 0.05 µM was 53%. For `COc1cccc(C(=O)Nc2cc(-c3noc(-c4sc(NC(=O)NCC(F)(F)F)nc4N)n3)c(F)cc2F)c1`, the inhibition at 0.05 µM was 89%. `COc1cccc(C(=O)Nc2cc(-c3noc(-c4sc(NC(=O)NCCCn5ccnc5)nc4N)n3)c(F)cc2F)c1` showed an inhibition at 0.05 µM of 87%. `COc1cccc(C(=O)Nc2cc(-c3noc(-c4sc(NC(=O)NCCc5ccc(S(N)(=O)=O)cc5)nc4N)n3)c(F)cc2F)c1` gave an inhibition at 0.05 µM of 83%. For `CCCCN(CC)CCNC(=O)Nc1nc(N)c(-c2nc(-c3cc(NC(=O)c4cccc(OC)c4)c(F)cc3F)no2)s1`, the inhibition at 0.05 µM was 42%. `COc1cccc(C(=O)Nc2cc(-c3noc(-c4sc(NC(=O)NCc5ccc(N(C)C)cc5)nc4N)n3)c(F)cc2F)c1` gave an inhibition at 0.05 µM of 48%. For `COc1cccc(C(=O)Nc2cc(-c3noc(-c4sc(NC(=O)NCP(=O)(O)O)nc4N)n3)c(F)cc2F)c1`, the inhibition at 0.05 µM was 4%. Work on `COc1cccc(C(=O)Nc2cc(-c3noc(-c4sc(NC(=O)NC(CO)CO)nc4N)n3)c(F)cc2F)c1` yielded an inhibition at 0.05 µM of 31%. `COc1cccc(C(=O)Nc2cc(-c3noc(-c4sc(NC(=O)NCc5ccc(N)cc5)nc4N)n3)c(F)cc2F)c1` was tested, and the inhibition at 0.05 µM was 82%. In the case of `COc1cccc(C(=O)Nc2cc(-c3noc(-c4sc(NC(=O)N[C@@H](CO)C(N)=O)nc4N)n3)c(F)cc2F)c1`, the inhibition at 0.05 µM is reported as 59%. Work on `COc1cccc(C(=O)Nc2cc(-c3noc(-c4sc(NC(=O)NCCNC(C)=O)nc4N)n3)c(F)cc2F)c1` yielded an inhibition at 0.05 µM of 75%. With `CCN(CC)CCCNC(=O)Nc1nc(N)c(-c2nc(-c3cc(NC(=O)c4cccc(OC)c4)c(F)cc3F)no2)s1` the inhibition at 0.05 µM was 85%. For `COc1cccc(C(=O)Nc2cc(-c3noc(-c4sc(NC(=O)NCCc5cccnc5)nc4N)n3)c(F)cc2F)c1`, the inhibition at 0.05 µM was 38%. Molecule `COc1cccc(C(=O)Nc2cc(-c3noc(-c4sc(NC(=O)N[C@@H](CC(N)=O)C(N)=O)nc4N)n3)c(F)cc2F)c1` has an inhibition at 0.05 µM of 86%. Work on `CNC(=O)CNC(=O)Nc1nc(N)c(-c2nc(-c3cc(NC(=O)c4cccc(OC)c4)c(F)cc3F)no2)s1` yielded an inhibition at 0.05 µM of 51%. For `COc1cccc(C(=O)Nc2cc(-c3noc(-c4sc(NC(=O)NCCc5cncn5C)nc4N)n3)c(F)cc2F)c1`, the inhibition at 0.05 µM was 10%. Work on `CCN1CCCC1CNC(=O)Nc1nc(N)c(-c2nc(-c3cc(NC(=O)c4cccc(OC)c4)c(F)cc3F)no2)s1` (centres unmarked) yielded an inhibition at 0.05 µM of 12%. With `COc1cccc(C(=O)Nc2cc(-c3noc(-c4sc(NC(=O)NC(C)CN(C)C)nc4N)n3)c(F)cc2F)c1` (centres unmarked) the inhibition at 0.05 µM was 27%. Work on `COc1cccc(C(=O)Nc2cc(-c3noc(-c4sc(NC(=O)NCCCN5CCCC5)nc4N)n3)c(F)cc2F)c1` yielded an inhibition at 0.05 µM of 75%. Molecule `COc1cccc(C(=O)Nc2cc(-c3noc(-c4sc(NC(=O)NCCN(C(C)C)C(C)C)nc4N)n3)c(F)cc2F)c1` has an inhibition at 0.05 µM of -6%. `COc1cccc(C(=O)Nc2cc(-c3noc(-c4sc(NC(=O)NCCCN5CCN(C)CC5)nc4N)n3)c(F)cc2F)c1` showed an inhibition at 0.05 µM of 72%. `COc1cccc(C(=O)Nc2cc(-c3noc(-c4sc(NC(=O)NCCN5CCNC5=O)nc4N)n3)c(F)cc2F)c1` was tested, and the inhibition at 0.05 µM was -2%. In the case of `COc1cccc(C(=O)Nc2cc(-c3noc(-c4sc(NC(=O)NCCC(C)=O)nc4N)n3)c(F)cc2F)c1`, the inhibition at 0.05 µM is reported as 6%. With `CCN(CC)CCCC(C)NC(=O)Nc1nc(N)c(-c2nc(-c3cc(NC(=O)c4cccc(OC)c4)c(F)cc3F)no2)s1` (centres unmarked) the inhibition at 0.05 µM was 7%. Molecule `COc1cccc(C(=O)Nc2cc(-c3noc(-c4sc(NC(=O)NCCCCN(C)C)nc4N)n3)c(F)cc2F)c1` has an inhibition at 0.05 µM of -3%. In the case of `COc1cccc(C(=O)Nc2cc(-c3noc(-c4sc(NC(=O)NCCCCCCN(C)C)nc4N)n3)c(F)cc2F)c1`, the inhibition at 0.05 µM is reported as -6%. With `COc1cccc(C(=O)Nc2cc(-c3noc(-c4sc(NC(=O)NCC(C)N(C)C)nc4N)n3)c(F)cc2F)c1` (centres unmarked) the inhibition at 0.05 µM was -25%. For `COc1cccc(C(=O)Nc2cc(-c3noc(-c4sc(NC(=O)NCCCN5CCCCCC5)nc4N)n3)c(F)cc2F)c1`, the inhibition at 0.05 µM was 21%. `COc1cccc(C(=O)Nc2cc(-c3noc(-c4sc(NC(=O)NCCCN5CCCCC5)nc4N)n3)c(F)cc2F)c1` showed an inhibition at 0.05 µM of -20%. `COc1cccc(C(=O)Nc2cc(-c3noc(-c4sc(NC(=O)NC5CCS(=O)(=O)C5)nc4N)n3)c(F)cc2F)c1` (centres unmarked) showed an inhibition at 0.05 µM of -7%. In the case of `COc1cccc(C(=O)Nc2cc(-c3noc(-c4sc(NC(=O)NCCC(=O)NCC(=O)O)nc4N)n3)c(F)cc2F)c1`, the inhibition at 0.05 µM is reported as 49%. `COc1cccc(C(=O)Nc2cc(-c3noc(-c4sc(NC(=O)NCC#N)nc4N)n3)c(F)cc2F)c1` gave an inhibition at 0.05 µM of 12%. In the case of `COc1cccc(C(=O)Nc2cc(-c3noc(-c4sc(NC(=O)NCC(=O)NO)nc4N)n3)c(F)cc2F)c1`, the inhibition at 0.05 µM is reported as -12%. `COc1cccc(C(=O)Nc2cc(-c3noc(-c4sc(NC(=O)NCC(=O)O)nc4N)n3)c(F)cc2F)c1` gave an inhibition at 0.05 µM of 73%. With `COc1cccc(C(=O)Nc2cc(-c3noc(-c4sc(NC(=O)NCCS(=O)(=O)O)nc4N)n3)c(F)cc2F)c1` the inhibition at 0.05 µM was 88%. With `CCC(O)CNC(=O)Nc1nc(N)c(-c2nc(-c3cc(NC(=O)c4cccc(OC)c4)c(F)cc3F)no2)s1` (centres unmarked) the inhibition at 0.05 µM was 93%. `COc1cccc(C(=O)Nc2cc(-c3noc(-c4sc(NC(=O)NCC(C)(C)CO)nc4N)n3)c(F)cc2F)c1` showed an inhibition at 0.05 µM of 104%. `CCN1CC(NC(=O)Nc2nc(N)c(-c3nc(-c4cc(NC(=O)c5cccc(OC)c5)c(F)cc4F)no3)s2)CN1CC` was tested, and the inhibition at 0.05 µM was 92%. `CCN(CCNC(=O)Nc1nc(N)c(-c2nc(-c3cc(NC(=O)c4cccc(OC)c4)c(F)cc3F)no2)s1)c1cccc(C)c1` gave an inhibition at 0.05 µM of 67%. `COc1cccc(C(=O)Nc2cc(-c3noc(-c4sc(NC(=O)NCC(=N)N)nc4N)n3)c(F)cc2F)c1` showed an inhibition at 0.05 µM of 65%. `COc1cccc(C(=O)Nc2cc(-c3noc(-c4sc(NC(=O)NCC(C)(C)C)nc4N)n3)c(F)cc2F)c1` was tested, and the inhibition at 0.05 µM was 55%. With `COc1cccc(C(=O)Nc2cc(-c3noc(-c4sc(NC(=O)NC(=O)NCC5(O)CCCCC5)nc4N)n3)c(F)cc2F)c1` the inhibition at 0.05 µM was 99%. In the case of `COc1cccc(C(=O)Nc2cc(-c3noc(-c4sc(NC(=O)NCCc5c[nH]cn5)nc4N)n3)c(F)cc2F)c1`, the inhibition at 0.05 µM is reported as 72%. `COc1cccc(C(=O)Nc2cc(-c3noc(-c4sc(NC(=O)NCS(=O)(=O)O)nc4N)n3)c(F)cc2F)c1` gave an inhibition at 0.05 µM of 30%. `COc1cccc(C(=O)Nc2cc(-c3noc(-c4sc(NC(=O)NCCCN(C)c5ccccc5)nc4N)n3)c(F)cc2F)c1` was tested, and the inhibition at 0.05 µM was 84%. `COc1cccc(C(=O)Nc2cc(-c3noc(-c4sc(NC(=O)NCc5ccc(S(N)(=O)=O)cc5)nc4N)n3)c(F)cc2F)c1` gave an inhibition at 0.05 µM of 82%. For `COc1cccc(C(=O)Nc2cc(-c3noc(-c4sc(NC(=O)NCCCN(CCO)CCO)nc4N)n3)c(F)cc2F)c1`, the inhibition at 0.05 µM was 84%. `COc1cccc(C(=O)Nc2cc(-c3noc(-c4sc(NC(=O)NCCc5ccncc5)nc4N)n3)c(F)cc2F)c1` showed an inhibition at 0.05 µM of 99%.
